Reference: ChEMBL document CHEMBL1150456, “Synthesis of 2-O-heteroaroyl taxanes: evaluation of microtubule assembly promotion and cytotoxicity” (1995)

Legend:
Tubulin (Bos taurus) = Tubulin (Bos taurus) (UniProt Q6B856+Q862L2+Q862F3); assay: Concentration which causes polymerization of 50% of the tubulin present in 15 min at 37 degree C was tested in vitro relative to paclitaxel (1); type: functional
B16 = assay: Concentration which produces 50% inhibition of proliferation of B16 melanoma cytotoxic cells after 40h of incubation was tested in vitro relative to paclitaxel (1); type: functional, Mus musculus

Structure (SMILES)	Ratio (Tubulin (Bos taurus))	Ratio (B16)
CC(=O)O[C@H]1C(=O)[C@]2(C)[C@@H](O)CC3OC[C@@]3(OC(C)=O)[C@H]2[C@H](OC(=O)c2cccn2C)[C@]2(O)C[C@H](OC(=O)[C@H](O)[C@@H](NC(=O)c3ccccc3)c3ccccc3)C(C)=C1C2(C)C (stereo partly drawn)	2.6	2.6
CC(=O)O[C@H]1C(=O)[C@]2(C)[C@@H](O)CC3OC[C@@]3(OC(C)=O)[C@H]2[C@H](OC(=O)c2ccccn2)[C@]2(O)C[C@H](OC(=O)[C@H](O)[C@@H](NC(=O)c3ccccc3)c3ccccc3)C(C)=C1C2(C)C (stereo partly drawn)	2.8	8.7
CC(=O)O[C@H]1C(=O)[C@]2(C)[C@@H](O)CC3OC[C@@]3(OC(C)=O)[C@H]2[C@H](OC(=O)c2ccoc2)[C@]2(O)C[C@H](OC(=O)[C@H](O)[C@@H](NC(=O)c3ccccc3)c3ccccc3)C(C)=C1C2(C)C (stereo partly drawn)	2.1	8.2
CC(=O)O[C@H]1C(=O)[C@]2(C)[C@@H](O)CC3OC[C@@]3(OC(C)=O)[C@H]2[C@H](OC(=O)c2ccsc2)[C@]2(O)C[C@H](OC(=O)[C@H](O)[C@@H](NC(=O)c3ccccc3)c3ccccc3)C(C)=C1C2(C)C (stereo partly drawn)	1.4	2.1
CC(=O)O[C@H]1C(=O)[C@]2(C)[C@@H](O)CC3OC[C@@]3(OC(C)=O)[C@H]2[C@H](OC(=O)c2cccs2)[C@]2(O)C[C@H](OC(=O)[C@H](O)[C@@H](NC(=O)c3ccccc3)c3ccccc3)C(C)=C1C2(C)C (stereo partly drawn)	1.1	3.8
CC(=O)O[C@H]1C(=O)[C@@]2(C)[C@H]([C@H](OC(=O)c3ccccc3)[C@]3(O)C[C@H](OC(=O)[C@H](O)[C@@H](NC(=O)c4ccccc4)c4ccccc4)C(C)=C1C3(C)C)[C@]1(OC(C)=O)CO[C@@H]1C[C@@H]2O [PACLITAXEL]	1	1
CC(=O)O[C@H]1C(=O)[C@]2(C)[C@@H](O)CC3OC[C@@]3(OC(C)=O)[C@H]2[C@H](OC(=O)c2cccnc2)[C@]2(O)C[C@H](OC(=O)[C@H](O)[C@@H](NC(=O)c3ccccc3)c3ccccc3)C(C)=C1C2(C)C (stereo partly drawn)	4	>36
CC(=O)O[C@H]1C(=O)[C@]2(C)[C@@H](O)CC3OC[C@@]3(OC(C)=O)[C@H]2[C@H](OC(=O)c2ccncc2)[C@]2(O)C[C@H](OC(=O)[C@H](O)[C@@H](NC(=O)c3ccccc3)c3ccccc3)C(C)=C1C2(C)C (stereo partly drawn)	7.3	>36
CC(=O)O[C@H]1C(=O)[C@]2(C)[C@@H](O)CC3OC[C@@]3(OC(C)=O)[C@H]2[C@H](OC(=O)c2ccco2)[C@]2(O)C[C@H](OC(=O)[C@H](O)[C@@H](NC(=O)c3ccccc3)c3ccccc3)C(C)=C1C2(C)C (stereo partly drawn)	2.4	14
